For data set [1], the system named is oral mucosa cells. Kind of data set: Genotoxic effects on oral mucosa cells. Format: cell-based, human. Particulars: positive control, hydrogen peroxide 0.0005%. As for the experimental part: The tests were performed according to the recommendations established by the Code of Ethics of the World Medical Association, after approval by the ethics committee of the Centro Universitário de Patos (number: 3621284). Blood samples (types A, B, and O) and smears of oral mucosa were donated by young, healthy adults. First, the oral mucosa cells were collected from the donors, which was done with a cyto-brush (smear collector) in the cheek area, and the material obtained was placed in 5 mL of 0.9% NaCl. As controls, cells treated with hydrogen peroxide −0.0005% (positive control) and untreated cells (negative control) were used. The cells were washed twice with saline and centrifuged for 10 min at 400× g and kept in saline. After the third wash, the cells were exposed (ex vivo) to A2 substance at 50, 100, 500, and 1000 µg/mL concentrations for 30 min. The material was centrifuged and the supernatant was discarded before smear preparation. The cells were homogenized in a vortex and placed on the slides at room temperature for drying for 15 min. Then, they were fixed with methanol: acetic acid (3:1) for 15 min and stained with 2% Giemsa.

Data set [2] relates to Candida albicans. Details: method as in doi:10.4067/S0717-97072003000400005. Particulars: cited from earlier work.
In data set [3] the test system is K. pneumoniae strains. Briefly: Minimum inhibitory concentration (MIC), broth microdilution. Format: cell-based, Klebsiella pneumoniae. As for the experimental part: The clinical isolates strains of K. pneumoniae were used in this study belong to the MICOTECA of the Antibacterial and Antifungal Activity Research Laboratory of the Federal University of Paraíba, Brazil, which are: KP-25, KP-26, KP-56, KP-83, KP-87, KP-138, KP-143, KP-166, KP-173, KP-176, KP-260, and KP-326. The American Type Culture Collection strain ATCC-700603 was used as controls. For use in the assays, bacterial suspensions were prepared in 0.9% saline solution, from fresh cultures, and adjusted to the McFarland standard 0.5 scale.
To assess the antibacterial activity of substances A1 and A2, the minimum inhibitory concentration against K. pneumoniae strains was determined. The substances were solubilized in dimethyl sulfoxide (DMSO) at 5% and Tween-80 at 2%, to obtain emulsions in the concentrations necessary for use in the tests. The MIC determination was performed using the broth microdilution technique in a 96-well plate to obtain different concentrations of A1 and A2 [35]. In parallel, controls for sterility, cell viability, and interference of the vehicles used in the preparation of substance emulsions (DMSO and Tween-80) were also performed. MIC is defined as the lowest concentration capable of causing complete inhibition of bacterial growth after 24 h at 35 ± 2 °C.
A general note: Dilution methods test growth across graded concentrations, often in twofold steps.

The structures appear in SMILES notation. Converted amounts (≈) assume the structure as drawn. “Also recorded” adds a separate entry of the source. Read-outs that look alike come from different tables or passages of the source.

As for `OO` [PC-H2O2, hydrogen peroxide, reference compound], in data set [1], the Binucleation was 1.00%, the Karyolysis is 7.00%, the Karyorrhexis was 10.75% and the Micronucleus is 6.50%. Besides, the Normal in data set [1] came out at 77.75%.
In the case of `O=C(CCl)Nc1ccccc1O` [2-chloro-N-(2-hydroxyphenyl) acetamide], the “C. albicans strains inhibited” value in data set [2] is 96.6%.
Turning to `CC(=O)Nc1ccccc1O` [N-(2-hydroxyphenyl) acetamide], the “antimicrobial activity against Candida albicans” value in data set [2] is on record as “did not have the ability to inhibit fungal growth; also recorded: absence of activity”.
For the molecule `CC(=O)Nc1ccc(F)c([N+](=O)[O-])c1` [A1, N-(4-fluoro-3-nitrophenyl)acetamide], the melting point is 142 to 144 °C. Besides, the MIC in data set [3] (Klebsiella pneumoniae, ATCC700603, strain ATCC-700603, 24 h at 35 ± 2 °C, read-out: MIC) was 1020 µg/mL (≈ 5.17 mM). Also, the MIC in data set [3] (Klebsiella pneumoniae, 100% of the K. pneumoniae strains used in this study, read-out: MIC) turned out to be 1020 µg/mL (≈ 5.17 mM). The MIC in data set [3] (Klebsiella pneumoniae, strain KP-138, 24 h at 35 ± 2 °C, read-out: MIC) was found to be 1020 µg/mL (≈ 5.17 mM). In addition, the MIC in data set [3] (strain KP-25, 24 h at 35 ± 2 °C) is 1024 µg/mL (≈ 5.17 mM). The molecule further gave an MIC in data set [3] (strain KP-26, 24 h at 35 ± 2 °C) of 1024 µg/mL (≈ 5.17 mM). The same molecule had an MIC in data set [3] (strain KP-56, 24 h at 35 ± 2 °C) of 1024 µg/mL (≈ 5.17 mM). In data set [3] (strain KP-83, 24 h at 35 ± 2 °C), this molecule came in with an MIC of 1024 µg/mL (≈ 5.17 mM). Also, the MIC in data set [3] (strain KP-87, 24 h at 35 ± 2 °C) came to 1024 µg/mL (≈ 5.17 mM). The molecule further showed an MIC in data set [3] (strain KP-143, 24 h at 35 ± 2 °C) of 1024 µg/mL (≈ 5.17 mM). Also, the MIC in data set [3] (strain KP-166, 24 h at 35 ± 2 °C) was determined as 1024 µg/mL (≈ 5.17 mM). Besides, the MIC in data set [3] (strain KP-173, 24 h at 35 ± 2 °C) stood at 1024 µg/mL (≈ 5.17 mM). Also, in data set [3] (strain KP-176, 24 h at 35 ± 2 °C), the MIC is 1024 µg/mL (≈ 5.17 mM). Besides, the MIC in data set [3] (strain KP-260, 24 h at 35 ± 2 °C) came to 1024 µg/mL (≈ 5.17 mM). In data set [3] (strain KP-326, 24 h at 35 ± 2 °C), this molecule displayed an MIC of 1024 µg/mL (≈ 5.17 mM).

In general, MIC refers to the lowest concentration that inhibits growth of the organism. A word on the melting point: it is the temperature, or range, at which the solid turns liquid.

The values are drawn from PMC7504751, “Potential of 2-Chloro-N-(4-fluoro-3-nitrophenyl)acetamide Against Klebsiella pneumoniae and In Vitro Toxicity Analysis” (Molecules, 2020).
